Experimental data taken from patent US9340528B2, “Substituted aminoquinoxalines as tyrosine threonine kinase inhibitors” (BAYER PHARMA AKTIENGESELLSCHAFT, priority 2009, dated 2016).

System: HeLa human cervical tumor cells (ATCC CCL-2)
Assay: Proliferation Assay (crystal violet staining, 4 days)
Format: cell-based
Settings: 96 h, 4 days incubation, read-out: EO-PROLIF-HELA
Protocol: Biological Assay: Proliferation Assay
Cultivated HeLa human cervical tumor cells (ATCC CCL-2) were plated at a density of 3000 cells/well in a 96-well multititer plate in 200 μl DMEM/HAMS F12 medium supplemented with 2 mM L-Glutamine and 10% fetal calf serum. After 24 hours, the cells of one plate (zero-point plate) were stained with crystal violet (see below), while the medium of the other plates was replaced by fresh culture medium (200 μl), to which the test substances were added in various concentrations (0 μM, as well as in the range of 0.01-30 μM; the final concentration of the solvent dimethyl sulfoxide was 0.5%). The cells were incubated for 4 days in the presence of test substances. Cell proliferation was determined by staining the cells with crystal violet: the cells were fixed by adding 20 μl/measuring point of an 11% glutaric aldehyde solution for 15 minutes at room temperature. After three washing cycles of the fixed cells with water, the plates were dried at room temperature. The cells were stained by adding 100 μl/measuring point of a 0.1% crystal violet solution (pH 3.0). After three washing cycles of the stained cells with water, the plates were dried at room temperature. The dye was dissolved by adding 100 μl/measuring point of a 10% acetic acid solution. The extinction was determined by photometry at a wavelength of 595 nm. The change of cell number, in percent, was calculated by normalization of the measured values to the extinction values of the zero-point plate (=0%) and the extinction of the untreated (0 μm) cells (=100%). The IC50 values were determined by means of a 4 parameter fit using the company's own software.

| IC50 | SMILES |
| --- | --- |
| 3 µM | O=C(Cc1ccccc1)Nc1ccc(-c2ccc3ncc(N4CCN(Cc5cccnc5)CC4)nc3c2)cc1 [Example 9.1, 2-phenyl-N-{4-[3-(4-pyridin-3-ylmethyl-piperazin-1-yl)-quinoxalin-6-yl]-phenyl}-acetamide] |
| 2.84 µM | O=C(Cc1ccccc1F)Nc1ccc(-c2ccc3ncc(N4CCN(c5ccncc5)CC4)nc3c2)cc1 [Example 7.2, 2-(2-fluorophenyl)-N-(4-{3-[4-(pyridin-4-yl)piperazin-1-yl]quinoxalin-6-yl}phenyl)acetamide] |
| 3.87 µM | Oc1ccc(-c2ccc3ncc(N4CCN(c5cnccn5)CC4)nc3c2)cc1 [Example 3.17, 4-{3-[4-(pyrazin-2-yl)piperazin-1-yl]quinoxalin-6-yl}phenol] |
| 10 µM | O=C(NCc1ccccc1)Nc1ccc(-c2ccc3ncc(N4CCOCC4)nc3c2)cc1 [Example 6.6, 1-benzyl-3-{4-[3-(morpholin-4-yl)quinoxalin-6-yl]phenyl}urea] |
| 0.889 µM | CN1CCN(Cc2ccc(NC(=O)Nc3ccc(-c4ccc5ncc(N6CCOCC6)nc5c4)cc3)cc2C(F)(F)F)CC1 [Example 1.71, 1-{4-[(4-methylpiperazin-1-yl)methyl]-3-(trifluoromethyl)phenyl}-3-{4-[3-(morpholin-4-yl)quinoxalin-6-yl]phenyl}urea] |
| 2.32 µM | Cc1cc(-c2ccc3ncc(N4CCOCC4)nc3c2)cc(C)c1O [Example 1.108, 2,6-dimethyl-4-[3-(morpholin-4-yl)quinoxalin-6-yl]phenol] |
| 3 µM | O=C(Cc1ccccc1F)Nc1ccc(-c2ccc3ncc(N4CCN(Cc5cccnc5)CC4)nc3c2)cc1 [Example 9.2, 2-(2-fluorophenyl)-N-(4-{3-[4-(pyridin-3-ylmethyl)piperazin-1-yl]quinoxalin-6-yl}phenyl)acetamide] |
| 3 µM | O=C(Nc1ccccc1)c1ccc(-c2ccc3ncc(N4CCCCC4)nc3c2)cc1 [Example 2.90, N-phenyl-4-[3-(piperidin-1-yl)quinoxalin-6-yl]benzamide] |
| 8.25 µM | Oc1ccc(-c2ccc3ncc(N4CCN(Cc5cccnc5)CC4)nc3c2)cc1 [Example 3.35, 4-{3-[4-(pyridin-3-ylmethyl)piperazin-1-yl]quinoxalin-6-yl}phenol] |
| 10 µM | O=C(Cc1ccccc1)Nc1ccc(-c2ccc3ncc(N4CCOCC4)nc3c2)cc1 [Example 4.3, N-{4-[3-(morpholin-4-yl)quinoxalin-6-yl]phenyl}-2-phenylacetamide] |
| 2.56 µM | CC(C(=O)Nc1ccc(-c2ccc3ncc(N4CCN(c5ccncc5)CC4)nc3c2)cc1)c1ccccc1 (stereo not drawn) [Example 7.3, 2-phenyl-N-(4-{3-[4-(pyridin-4-yl)piperazin-1-yl]quinoxalin-6-yl}phenyl)propanamide] |
| 3 µM | CNC(=O)c1ccc(-c2ccc3ncc(N4CCOCC4)nc3c2)cc1 [Example 1.47, N-methyl-4-[3-(morpholin-4-yl)quinoxalin-6-yl]benzamide] |
| 3 µM | CC(=O)Nc1ccc(-c2ccc3ncc(N4CCOCC4)nc3c2)cc1 [Example 1.73, N-{4-[3-(morpholin-4-yl)quinoxalin-6-yl]phenyl}acetamide] |

Further lines, the compound ahead of its results:

| SMILES | IC50 |
| --- | --- |
| O=C(CCc1ccccc1)Nc1ccc(-c2ccc3ncc(N4CCN(c5ccncc5)CC4)nc3c2)cc1 [Example 7.4, 3-phenyl-N-(4-{3-[4-(pyridin-4-yl)piperazin-1-yl]quinoxalin-6-yl}phenyl)propanamide] | 1.43 µM |
| O=C(Cc1ccccc1)Nc1ccc(-c2ccc3ncc(N4CCN(c5ccncc5)CC4)nc3c2)cc1 [Example 7.1, 2-phenyl-N-{4-[3-(4-pyridin-4-yl-piperazin-1-yl)-quinoxalin-6-yl]-phenyl}-acetamide] | 2.61 µM |
| O=C(Nc1ccc(-c2ccc3ncc(N4CCOCC4)nc3c2)cc1)Nc1cccnc1 [Example 6.8, 1-{4-[3-(morpholin-4-yl)quinoxalin-6-yl]phenyl}-3-pyridin-3-ylurea] | 3.93 µM |
| CC(C(=O)Nc1ccc(-c2ccc3ncc(N4CCN(Cc5cccnc5)CC4)nc3c2)cc1)c1ccccc1 (stereo not drawn) [Example 9.3, 2-phenyl-N-(4-{3-[4-(pyridin-3-ylmethyl)piperazin-1-yl]quinoxalin-6-yl}phenyl)propanamide] | 3 µM |
| O=C(CC1CC1)Nc1ccc(-c2ccc3ncc(N4CCN(c5ccncc5)CC4)nc3c2)cc1 [Example 7.7, 2-cyclopropyl-N-(4-{3-[4-(pyridin-4-yl)piperazin-1-yl]quinoxalin-6-yl}phenyl)acetamide] | 1.71 µM |
| CN1CCN(Cc2ccc(NC(=O)Nc3ccc(-c4ccc5ncc(N6CCCCC6)nc5c4)cc3)cc2C(F)(F)F)CC1 [Example 2.73, 1-{4-[(4-methylpiperazin-1-yl)methyl]-3-(trifluoromethyl)phenyl}-3-{4-[3-(piperidin-1-yl)quinoxalin-6-yl]phenyl}urea] | 1.12 µM |
| Oc1ccc(-c2ccc3ncc(N4CCN(c5ccncc5)CC4)nc3c2)cc1 [Example 3.15, 4-{3-[4-(pyridin-4-yl)piperazin-1-yl]quinoxalin-6-yl}phenol] | 2.92 µM |
| O=C(Nc1ccc(-c2ccc3ncc(N4CCN(c5ccncc5)CC4)nc3c2)cc1)NC1CC1 [Example 8.3, 1-cyclopropyl-3-(4-{3-[4-(pyridin-4-yl)piperazin-1-yl]quinoxalin-6-yl}phenyl)urea] | 3 µM |
| Oc1ccc(-c2ccc3ncc(N4CCOCC4)nc3c2)cc1 [Example 3.5, 4-[3-(morpholin-4-yl)quinoxalin-6-yl]phenol] | 2.51 µM |
| O=C(Cc1cccc(C(F)(F)F)c1)Nc1ccc(-c2ccc3ncc(N4CCOCC4)nc3c2)cc1 [Example 4.13, N-{4-[3-(morpholin-4-yl)quinoxalin-6-yl]phenyl}-2-[3-(trifluoromethyl)phenyl]acetamide] | 8.12 µM |
| O=C(Cc1ccccn1)Nc1ccc(-c2ccc3ncc(N4CCN(c5ccncc5)CC4)nc3c2)cc1 [Example 7.6, 2-(pyridin-2-yl)-N-(4-{3-[4-(pyridin-4-yl)piperazin-1-yl]quinoxalin-6-yl}phenyl)acetamide] | 2.79 µM |
